Publication PMC4209162, “Specific aromatic foldamers potently inhibit spontaneous and seeded Aβ42 and Aβ43 fibril assembly” (Biochemical Journal, 2014)
“Also recorded” adds a separate entry of the source.

Tests used:
[1] = biological target: T1, Aβ42 (Homo sapiens, UniProt P05067); experiment: Seeded Aβ42 fibrillization (ThT fluorescence, EM); assay type: biochemical; conditions: for Inhibition of seeded Aβ42 fibrillization / Extent of seeded Aβ42 fibrillization at 4-fold molar excess of foldamer: Aβ42 5 μM plus seed 0.1 μM monomer; for Inhibition of seeded Aβ42 fibrillization: foldamer 5, 10 or 20 μM, 0–2 h, 25°C; for Inhibition of seeded Aβ42 fibrillization, different assembly conditions: Aβ prepared without DMSO, PBE pH 8, Aβ42 5 μM plus seed 0.1 μM monomer, 16 h; for Inhibition of seeded Aβ42 fibrillization, different assembly conditions / Extent of seeded Aβ42 fibrillization at 4-fold molar excess of foldamer: foldamer 20 μM
T1 sequence (P05067 672-713 limits assumed): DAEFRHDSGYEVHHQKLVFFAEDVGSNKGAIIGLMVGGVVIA

[2] = tested on: SH-SY5Y human neuroblastoma cells; experiment: Toxicity of Aβ43 conformers to SH-SY5Y cells (MTT reduction, LDH release); assay type: cell-based; conditions: 24 h, MTT and LDH; for Effect on toxicity of Aβ43 conformers after 0.5 h of assembly: Aβ43 5 μM assembled with foldamer 20 μM for 0.5 h; for Effect on toxicity of Aβ43 conformers after 4 h of assembly: Aβ43 5 μM assembled with foldamer 20 μM for 4 h
Protocol: (§1) SH-SY5Y human neuroblastoma cells were maintained in Dulbecco's modified Eagle's medium (DMEM) plus 10 mM Hepes, 10% FBS, 4 mM glutamine, penicillin (200 units/ml) and streptomycin (200 μg/ml) in 5% CO2 at 37°C. Cells were differentiated in serum-free DMEM with N2 supplement and 10 μM all-trans-retinoic acid before use. Cells were plated at (10000 cells/well) in 96-well plates and grown overnight. Medium was removed and Aβ conformers or controls were added and cells were incubated for 24 h at 37°C. Toxicity was assessed using an MTT kit (Tox-1; Sigma) or via lactate dehydrogenase (LDH) release using the CytoTox-ONE™ kit (Promega). Toxicity values were normalized to the buffer control without Aβ.

[3] = biological target: T2, Aβ43 (Homo sapiens, UniProt P05067); experiment: Spontaneous Aβ43 fibrillization (ThT fluorescence, EM); assay type: biochemical; conditions: for Inhibition of spontaneous Aβ43 fibrillization: foldamer 5, 10 or 20 μM, 0–8 h, EM 10 μM 4 h
T2 sequence (P05067 672-714 limits assumed): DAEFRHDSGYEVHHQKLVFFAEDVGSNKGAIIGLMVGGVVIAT

[4] = biological target: T2, Aβ43; experiment: Seeded Aβ43 fibrillization (ThT fluorescence, EM); assay type: biochemical; conditions: for Inhibition of seeded Aβ43 fibrillization: Aβ43 5 μM plus seed 0.1 μM monomer, foldamer 5, 10 or 20 μM, 0–2 h, 25°C, EM
[5] = biological target: Aβ43 oligomers (Homo sapiens, UniProt P05067); experiment: A11-reactive Aβ43 conformers (ELISA); assay type: biochemical; conditions: Aβ43 5 μM, foldamer 20 μM, 25°C; for Effect on A11-reactive Aβ43 conformers after 0.5 h: 0.5 h (end of lag phase); for Effect on A11-reactive Aβ43 conformers after 4 h: 4 h (endpoint of fibrillization)
Chain of Aβ43 oligomers (P05067 672-714 limits assumed): as above

[6] = biological target: T1, Aβ42; experiment: Spontaneous Aβ42 fibrillization (ThT fluorescence, EM); assay type: biochemical; conditions: 25°C; for Inhibition of spontaneous Aβ42 fibrillization: Aβ42 5 μM, foldamer 10 μM, 8 h, agitation, ThT fluorescence (EM 4 h); for Inhibition of spontaneous Aβ42 fibrillization, different assembly conditions: Aβ prepared without DMSO, PBE pH 8, Aβ42 5 μM, foldamer 20 μM, 16 h, ThT
[7] = biological target: Aβ42 oligomers (Homo sapiens, UniProt P05067); experiment: A11-reactive Aβ42 conformers (ELISA); assay type: biochemical; conditions: Aβ42 5 μM, foldamer 20 μM, 25°C; for Effect on A11-reactive Aβ42 conformers after 0.5 h: 0.5 h (end of lag phase); for Effect on A11-reactive Aβ42 conformers after 4 h: 4 h (endpoint of fibrillization)
Chain of Aβ42 oligomers (P05067 672-713 limits assumed): as the sequence (P05067 672-713 limits assumed) above

[8] = biological target: T3, FUS (Homo sapiens, UniProt P35637); experiment: FUS aggregation (turbidity, absorbance at 395 nm); assay type: biochemical; conditions: GST-FUS 5 μM, foldamer 20 μM, plus TEV protease, 25°C, 0–90 min
T3 sequence (P35637 1-526): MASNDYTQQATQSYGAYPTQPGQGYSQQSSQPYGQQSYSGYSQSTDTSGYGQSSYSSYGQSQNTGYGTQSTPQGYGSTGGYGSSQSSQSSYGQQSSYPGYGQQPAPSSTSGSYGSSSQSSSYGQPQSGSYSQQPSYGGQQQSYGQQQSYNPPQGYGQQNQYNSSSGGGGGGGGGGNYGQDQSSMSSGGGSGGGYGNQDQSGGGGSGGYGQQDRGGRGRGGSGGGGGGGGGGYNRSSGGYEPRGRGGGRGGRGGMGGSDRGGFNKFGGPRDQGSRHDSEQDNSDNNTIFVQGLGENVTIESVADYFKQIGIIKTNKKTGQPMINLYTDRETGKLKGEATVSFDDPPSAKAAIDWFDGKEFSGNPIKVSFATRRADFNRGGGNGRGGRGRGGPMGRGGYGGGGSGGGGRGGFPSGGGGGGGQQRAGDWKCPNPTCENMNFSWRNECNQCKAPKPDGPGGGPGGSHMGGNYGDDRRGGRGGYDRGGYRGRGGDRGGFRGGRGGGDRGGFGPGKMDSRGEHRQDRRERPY
Protocol: GST–TEV–FUS was purified as described. Aggregation was initiated by addition of tobbaco etch virus (TEV) protease to GST–TEV–FUS (5 μM) plus or minus foldamer (20 μM) in assembly buffer (50 mM Tris/HCl pH 8, 0.2 M trehalose and 20 mM glutathione). Aggregation was for 0–90 min at 25°C without agitation in a 96-well plate and was assessed by turbidity (absorbance at 395 nm) using a Tecan Infinite M1000 plate reader. No aggregation occurred unless TEV protease was added to separate GST from FUS [58].

[9] = biological target: Aβ42 fibrils (Homo sapiens, UniProt P05067); experiment: Disassembly of preformed Aβ42 fibrils; assay type: biochemical; conditions: foldamer in 4-fold molar excess, 24 h (results not shown)
Chain of Aβ42 fibrils (P05067 672-713 limits assumed): as the sequence (P05067 672-713 limits assumed) above

[10] = tested on: SH-SY5Y human neuroblastoma cells; experiment: Toxicity of Aβ42 conformers to SH-SY5Y cells (MTT reduction, LDH release); assay type: cell-based; conditions: 24 h, MTT and LDH; for Effect on toxicity of Aβ42 conformers after 0.5 h of assembly: Aβ42 5 μM assembled with foldamer 20 μM for 0.5 h; for Effect on toxicity of Aβ42 conformers after 4 h of assembly: Aβ42 5 μM assembled with foldamer 20 μM for 4 h
Protocol: as §1

Substance | Inhibition of seeded Aβ42 fibrillization [1] | Inhibition of seeded Aβ42 fibrillization, different assembly conditions [1] | Effect on toxicity of Aβ43 conformers after 0.5 h of assembly [2] | Effect on toxicity of Aβ43 conformers after 4 h of assembly [2] | Inhibition of spontaneous Aβ43 fibrillization ([3]; Aβ43 5 μM, 25°C, ThT) | Inhibition of seeded Aβ43 fibrillization ([4]; ThT) | Effect on A11-reactive Aβ43 conformers after 0.5 h [5] | Effect on A11-reactive Aβ43 conformers after 4 h [5] | Inhibition of spontaneous Aβ42 fibrillization [6] | Inhibition of spontaneous Aβ42 fibrillization, different assembly conditions [6] | Effect on A11-reactive Aβ42 conformers after 0.5 h [7] | Effect on A11-reactive Aβ42 conformers after 4 h [7] | Inhibition of FUS aggregation [8] | Disassembly of Aβ42 fibrils [9] | Effect on toxicity of Aβ42 conformers after 0.5 h of assembly [10] | Effect on toxicity of Aβ42 conformers after 4 h of assembly [10] | also measured
Ac-Sal-(Lys-Sal)3-CONH2 | inhibited seeded Aβ42 fibrillization at all concentrations tested | inhibited | neither Sal-(Lys-Sal)3-CONH2 nor Ac-Sal-(Lys-Sal)3-CONH2 affected the toxicity | neither Sal-(Lys-Sal)3-CONH2 nor Ac-Sal-(Lys-Sal)3-CONH2 affected the toxicity | did not block spontaneous Aβ43 fibrillization | did not inhibit seeded Aβ43 fibrillization | had no effect | declined more extensively | strong inhibitors; also recorded: potent inhibitors | inhibited | had no effect | remained at higher levels | did not inhibit FUS aggregation | did not disassemble Aβ42 fibrils | had no effect | enhanced | 
Ac-(Lys-Sal)2-CONH2 |  |  |  |  |  |  |  |  | failed to inhibit assembly |  |  |  |  |  |  |  | 
(Lys-Sal)4-COOH |  |  |  |  |  |  |  |  | ineffective |  |  |  |  |  |  |  | 
(Arg-Sal-Cit-Sal)2-CONH2 |  |  |  |  |  |  |  |  | ineffective |  |  |  |  |  |  |  | 
(Lys-Sal)4-CONH2 |  |  |  |  |  |  |  |  | ineffective |  |  |  |  |  |  |  | 
Ac-(Lys-Sal)3-CONH2 |  |  |  |  |  |  |  |  | failed to inhibit assembly |  |  |  |  |  |  |  | 
(Lys-Sal)3-CONH2 |  |  |  |  |  |  |  |  | failed to inhibit assembly |  |  |  |  |  |  |  | 
Sal-(Lys-Sal)3-CONH2 | only inhibited seeded Aβ42 fibrillization when present at a 4-fold molar excess over Aβ42 | inhibited | neither Sal-(Lys-Sal)3-CONH2 nor Ac-Sal-(Lys-Sal)3-CONH2 affected the toxicity | neither Sal-(Lys-Sal)3-CONH2 nor Ac-Sal-(Lys-Sal)3-CONH2 affected the toxicity | did not block spontaneous Aβ43 fibrillization | did not inhibit seeded Aβ43 fibrillization | had no effect | declined more extensively | strong inhibitors; also recorded: potent inhibitors | inhibited | had no effect | remained at higher levels | delayed FUS aggregation | did not disassemble Aβ42 fibrils | had no effect | enhanced | Extent of seeded Aβ42 fibrillization at 4-fold molar excess of foldamer [1]: very limited; ThT fluorescence of Aβ43 fibrils formed in presence of foldamer (spontaneous) ([3]; Aβ43 5 μM, compared with Aβ43 alone): higher ThT fluorescence; ThT fluorescence of Aβ43 fibrillar forms in presence of foldamer (seeded) ([4]; Aβ43 5 μM plus seed, compared with Aβ43 alone): higher ThT fluorescence signal
(Arg-Benz)4-CONH2 | only inhibited seeded Aβ42 fibrillization when present at a 4-fold molar excess over Aβ42 | inhibited | had no effect | enhanced | blocked spontaneous Aβ43 fibrillization | blocked seeded Aβ43 fibrillization | had no effect | had a similar effect | strong inhibitors; also recorded: potent inhibitors | inhibited | had no effect | remained at higher levels | did not inhibit FUS aggregation | did not disassemble Aβ42 fibrils | had no effect | enhanced | Extent of seeded Aβ42 fibrillization at 4-fold molar excess of foldamer [1]: some fibrillization occurred; Major Aβ43 species by EM ([3]; Aβ43 5 μM, foldamer 10 μM, 4 h, 25°C): small oligomers were the major species; Inhibition of spontaneous Aβ43 fibrillization, different assembly conditions ([3]; Aβ prepared without DMSO, PBE pH 8, Aβ43 5 μM, foldamer 20 μM, 16 h, 25°C, ThT): inhibited; Inhibition of seeded Aβ43 fibrillization, different assembly conditions ([4]; Aβ prepared without DMSO, PBE pH 8, Aβ43 5 μM plus seed 0.1 μM monomer, foldamer 20 μM, 16 h, ThT): inhibited
